According to patent publication US5750530A, “Pharmaceutical diketopiperazine compounds” (Xenova Limited, priority 1994, dated 1998):
Counter-ions that a name gives are not always drawn.

Target: PAI-1 (Homo sapiens, UniProt P05121)
Test: biochemical
Format: biochemical
Settings: for IC50: PAI chromogenic substrate assay
In short: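 Compound preincubated with PAI-1 before addition to a tPA system; residual tPA converts plasminogen to plasmin, which cleaves chromogenic substrate S2251. Released p-nitroaniline read at 405 nm; values given as % inhibition at set concentrations or IC50.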

PAI-1, sequence (P05121 24-402): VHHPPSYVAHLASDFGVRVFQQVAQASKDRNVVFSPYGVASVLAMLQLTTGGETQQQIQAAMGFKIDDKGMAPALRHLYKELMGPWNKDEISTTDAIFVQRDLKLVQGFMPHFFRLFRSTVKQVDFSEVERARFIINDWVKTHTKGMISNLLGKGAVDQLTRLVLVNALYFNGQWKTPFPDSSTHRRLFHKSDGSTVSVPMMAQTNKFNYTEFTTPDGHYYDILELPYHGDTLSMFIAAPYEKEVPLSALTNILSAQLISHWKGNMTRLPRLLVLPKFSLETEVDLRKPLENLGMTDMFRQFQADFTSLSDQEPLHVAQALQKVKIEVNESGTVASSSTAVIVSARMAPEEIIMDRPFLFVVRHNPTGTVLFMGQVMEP

Row | % Inhibition (5 μm) [%] | % Inhibition (20 μm) [%] | IC50 [µM] | Compound
1 | 12 | 59 | 11.5 | CN(C)CCSc1ccc(/C=c2\[nH]c(=O)/c(=C/c3cn(C)c4ccccc34)[nH]c2=O)cc1 [Compound 5497.HCl, (3Z,6Z)-6-(4-(2-Dimethylaminoethylthio)benzylidene)-3-(1-methyl-3-indolyl)methylene-2,5-piperazinedione]
2 | 15 | 52 | 20 | CN(C)CCSc1ccc(/C=c2\[nH]c(=O)/c(=C/c3c4ccccc4cc4ccccc34)[nH]c2=O)s1 [Compound 5498, (3Z,6Z)-6-(9-Anthrylmethylene)-3-(5-(2-dimethylaminoethylthio)-2-thienyl)methylene-2,5-piperazinedione]
3 | 19 | 71 | 11.5 | CN(C)CCSc1ccc(/C=c2\[nH]c(=O)/c(=C/c3c4ccccc4cc4ccccc34)[nH]c2=O)s1 [Compound 5498.HCl, (3Z,6Z)-6-(9-Anthrylmethylene)-3-(5-(2-dimethylaminoethylthio)-2-thienyl)methylene-2,5-piperazinedione]
4 | 2 | 61 | 11.8 | COc1ccc2ccccc2c1/C=c1\[nH]c(=O)/c(=C/c2ccc(SCCN(C)C)s2)[nH]c1=O [Compound 5499, (3Z,6Z)-3-(5-(2-Dimethylaminoethylthio)-2-thienyl)methylene-6-(2-methoxy-1-naphthyl)methylene-2,5-piperazinedione]
5 | 0 | 54 | 18.4 | COc1ccc2ccccc2c1/C=c1\[nH]c(=O)/c(=C/c2ccc(SCCN(C)C)s2)[nH]c1=O [Compound 5499.HCl, (3Z,6Z)-3-(5-(2-Dimethylaminoethylthio)-2-thienyl)methylene-6-(2-methoxy-1-naphthyl)methylene-2,5-piperazinedione]
6 | 0 | 12 | > 20 | CN(C)CCSc1ccc(/C=c2\[nH]c(=O)/c(=C/CC(C)(C)C)[nH]c2=O)s1 [Compound 5502, (3Z,6Z)-3-(5-(2-Dimethylaminoethylthio)-2-thienyl)methylene-6-(3,3-dimethyl-1-butylidene)-2,5-piperazinedione]
7 | 0 | 32 | – | CN(C)CCSc1ccc(/C=c2\[nH]c(=O)/c(=C/CC(C)(C)C)[nH]c2=O)s1 [Compound 5502.HCl, (3Z,6Z)-3-(5-(2-Dimethylaminoethylthio)-2-thienyl)methylene-6-(3,3-dimethyl-1-butylidene)-2,5-piperazinedione]
